The test addresses T1, STAT1 (Homo sapiens, UniProt P42224).
T1 sequence (P42224 1-750): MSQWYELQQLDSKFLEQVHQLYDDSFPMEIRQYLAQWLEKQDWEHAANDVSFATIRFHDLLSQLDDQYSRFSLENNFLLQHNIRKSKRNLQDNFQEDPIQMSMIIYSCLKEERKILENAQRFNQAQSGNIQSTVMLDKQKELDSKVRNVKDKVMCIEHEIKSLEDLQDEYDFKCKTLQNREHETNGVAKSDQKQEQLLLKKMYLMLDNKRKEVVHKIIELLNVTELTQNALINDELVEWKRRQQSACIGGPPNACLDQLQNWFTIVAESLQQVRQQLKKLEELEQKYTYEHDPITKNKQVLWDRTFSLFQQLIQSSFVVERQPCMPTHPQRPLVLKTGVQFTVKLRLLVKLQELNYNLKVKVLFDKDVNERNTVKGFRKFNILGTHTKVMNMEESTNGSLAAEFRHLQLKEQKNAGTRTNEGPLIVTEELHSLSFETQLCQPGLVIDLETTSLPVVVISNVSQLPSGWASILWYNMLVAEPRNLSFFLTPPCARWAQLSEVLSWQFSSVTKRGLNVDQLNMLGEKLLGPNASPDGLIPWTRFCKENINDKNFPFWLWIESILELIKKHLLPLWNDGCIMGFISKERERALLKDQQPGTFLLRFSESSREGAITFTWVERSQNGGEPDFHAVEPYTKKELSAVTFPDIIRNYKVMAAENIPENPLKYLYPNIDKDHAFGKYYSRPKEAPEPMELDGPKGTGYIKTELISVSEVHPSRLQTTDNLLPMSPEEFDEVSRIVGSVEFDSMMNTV
The experiment in a line: Fluorescence polarization (FP) binding assay, STAT1. On the procedure: Ki values were calculated from IC50 values using the published equation.[2] […]
Table S2: Activities of 12 against STAT5 proteins in FP assays.
Fluorescence polarization assays
Fluorescence polarization assays were essentially carried out as previously described.[1] These assays quantitate to which extent a test compound is able to interfere with binding between a STAT protein and a fluorescein-labeled phosphotyrosine-containing peptide, which is known to bind to the SH2 domain of the respective STAT protein. The following protein […]
concentrations were used: 100 nM for STAT1, 150 nM for STAT3, 30 nM for STAT4, 180 nM for STAT5a, 90 nM for STAT5b and 105 nM for STAT6. All peptides were used at a concentration of 10 nM. The following peptides were used: 5 -carboxyfluorescein -GpYDKPHVL for STAT1; 5-carboxyfluorescein -GpYLPQTV-NH2 for STAT3; 5-carboxyfluorescein-GpYLPQNID-OH for STAT4; 5-carboxyfluorescein-GpYLVLDKW for STAT5a/b, and 5-carboxyfluorescein-GpYVPWQDLI-OH for STAT6. As a buffer system, 10 mM Tris (pH 8.0), 50 mM NaCl, 1 mM EDTA, 1 mM DTT, 0.1 % Nonidet P-40 substitute, and 2 % DMSO in water was used. All compounds tested were incubated for 1 h with the protein. Subsequently, the fluorescein-labeled peptide was added and the fluorescence polarization was measured with an Infinite F500 plate reader (Tecan) after another hour. IC50 values were converted to Ki-values using the published equation.[2] […]
3:2 solution was added . The solution was degassed by applying ultrasonic under vacuum for one minute four times. 14 mg of Pd(PPh3)4 (12 µmol, 5 mol %) were added and the solution was refluxed overnight. After cooling down, the mixture was extracted with ethyl acetate, washed with brine and dried over Na2SO4. The crude product was purified by flash column […]
Method 2: Synthesis of dibenzylphosphate esters
The corresponding phenol (1 eq.) was dissolved in 10 ml/mmol MeCN or DMF and CCl4 (5 eq.), DIPEA (2 eq.) and DMAP (0.1 eq.) were added. After cooling down to 0°C, dibenzyl phosphite (1.5 eq.) was added dropwise and stirring was continued at the same temperature. […]
For orientation: In fluorescence polarisation assays a small probe gives low polarisation when free and higher when bound to something large.

This is an account of results in publication PMC9303812, “Asymmetrically Substituted m‐Terphenyl Phosphates Inhibit the Transcription Factor STAT5a” (Chembiochem, 2021).

On to `COc1cc(-c2cc(OP(=O)(O)O)cc(-c3cc(F)c(F)c(F)c3)c2)cc(OC)c1OC` [6 b], for which the inhibition (usually how much of the control response was suppressed) at 200 µM (read-out: STAT1 inhibition at 200 μM) amounted to 51 ± 5%. Turning to `COc1cc(-c2cc(-c3cc(F)c(F)c(F)c3)cc(C(F)P(=O)(O)O)c2)cc(OC)c1OC` (stereo not drawn) [compound 12], where the note is “FP assay”, the IC50 (as a rule, the concentration needed to halve the response being measured) came to 90.6 ± 0.2 µM. In addition, the Ki (commonly a measure of affinity in units of concentration, obtained from inhibition or displacement) (FP assay, Ki calculated from IC50 (n=3)) was 44.6 ± 0.1 µM.
